This assay addresses T1, AR protein in VCaP cells (Homo sapiens, UniProt P10275).
T1 construct: endogenous in cells; host or cells: VCaP cells
T1 sequence (P10275 1-920): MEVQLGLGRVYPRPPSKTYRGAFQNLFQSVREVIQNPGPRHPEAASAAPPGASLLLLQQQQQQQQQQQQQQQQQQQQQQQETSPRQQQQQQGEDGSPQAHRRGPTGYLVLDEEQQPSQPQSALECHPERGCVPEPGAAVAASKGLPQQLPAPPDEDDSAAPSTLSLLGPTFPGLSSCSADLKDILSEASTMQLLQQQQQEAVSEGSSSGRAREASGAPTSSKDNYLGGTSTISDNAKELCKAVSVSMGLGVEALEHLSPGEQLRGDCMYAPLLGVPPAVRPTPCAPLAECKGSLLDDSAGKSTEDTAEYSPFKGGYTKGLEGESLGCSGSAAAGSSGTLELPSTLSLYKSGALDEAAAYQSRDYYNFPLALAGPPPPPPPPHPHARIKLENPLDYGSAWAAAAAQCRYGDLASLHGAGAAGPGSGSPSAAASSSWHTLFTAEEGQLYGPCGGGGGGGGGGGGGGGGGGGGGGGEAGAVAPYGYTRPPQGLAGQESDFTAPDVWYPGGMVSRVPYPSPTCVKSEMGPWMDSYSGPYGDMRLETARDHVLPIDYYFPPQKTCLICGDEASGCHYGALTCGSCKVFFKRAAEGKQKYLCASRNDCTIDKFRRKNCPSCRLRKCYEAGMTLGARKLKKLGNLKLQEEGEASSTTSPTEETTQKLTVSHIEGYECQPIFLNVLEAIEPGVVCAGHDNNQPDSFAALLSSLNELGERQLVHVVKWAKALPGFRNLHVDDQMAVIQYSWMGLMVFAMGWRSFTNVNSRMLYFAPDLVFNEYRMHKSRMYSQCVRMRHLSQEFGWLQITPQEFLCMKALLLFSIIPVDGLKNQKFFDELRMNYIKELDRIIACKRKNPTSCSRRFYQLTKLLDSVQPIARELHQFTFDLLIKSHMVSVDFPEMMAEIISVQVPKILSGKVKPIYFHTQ
Description: VCAP AR Degradation Assay (AR ELISA, 24 h). The format is cell-based. As to conditions: for Y (lowest measured AR level normalized to DMSO control): AR degradation efficiency; for DC50: concentration of compound when AR level = 50% of DMSO control. The method, boiled down: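 VCaP cells in DMEM with 8% FBS exposed for 24 h at 37° C to a 10-point, 1:3 series (final top concentration […]; 0.1% DMSO control). Lysate AR measured by sandwich ELISA and normalized to DMSO as percent of control. DC50, EC50 and lowest AR level (Y) from four-parameter logistic fit.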

The structures appear in SMILES notation. Like-named read-outs stand apart in the source and are kept apart here.

By DC50 is commonly meant the concentration giving 50% degradation.

On to `CCc1cc(N2C(=S)N(c3cnc(C#N)c(C(F)(F)F)c3)C(=O)C2(C)C)ccc1OCC[C@H]1CCN(CC(=O)Nc2cc(NC3CCC(=O)NC3=O)ccc2F)[C@H](C)C1` (stereo partly drawn) [Cmpd 77, 2-((2R,4S)-4-(2-(4-(3-(6-cyano-5-(trifluoromethyl)pyridin-3-yl)-5,5-dimethyl-4-oxo-2-thioxoimidazolidin-1-yl)-2-ethylphenoxy)ethyl)-2-methylpiperidin-1-yl)-N-(5-(2,6-dioxopiperidin-3-ylamino)-2-fluorophenyl)acetamide], for which the “Y (lowest measured AR level normalized to DMSO control)” value is “* (0<Y<=25%)”. Further, the DC50 (read-out: DC50) was 100 to 500 nM.
Take `CCc1cc(N2C(=S)N(c3ccc(C#N)c(C(F)(F)F)c3)C(=O)C23CCC3)ccc1OCCC1CCN([C@H](C)C(=O)Nc2cc(Cl)cc(NC3CCC(=O)NC3=O)c2)CC1` (stereo partly drawn) [Cmpd 31, (2R)-N-(3-chloro-5-(2,6-dioxopiperidin-3-ylamino)phenyl)-2-(4-(2-(4-(7-(4-cyano-3-(trifluoromethyl)phenyl)-8-oxo-6-thioxo-5,7-diazaspiro[3.4]octan-5-yl)-2-ethylphenoxy)ethyl)piperidin-1-yl)propanamide]: the “Y (lowest measured AR level normalized to DMSO control)” value is reported as “* (0<Y<=25%)”. In addition, the DC50 (read-out: DC50) lay within 100 to 500 nM.
The corresponding values for `CCc1cc(N2C(=S)N(c3cnc(C#N)c(C(F)(F)F)c3)C(=O)C2(C)C)ccc1OCCC1CCN([C@H](C)C(=O)Nc2cc(Cl)cc(NC3CCC(=O)NC3=O)c2)CC1` (stereo partly drawn) [Cmpd 25, (2R)-N-(3-chloro-5-(2,6-dioxopiperidin-3-ylamino)phenyl)-2-(4-(2-(4-(3-(6-cyano-5-(trifluoromethyl)pyridin-3-yl)-5,5-dimethyl-4-oxo-2-thioxoimidazolidin-1-yl)-2-ethylphenoxy)ethyl)piperidin-1-yl)propanamide] are “* (0<Y<=25%)” and under 100 nM.
For `CCc1cc(N2C(=S)N(c3cnc(C#N)c(C(F)(F)F)c3)C(=O)C2(C)C)ccc1OCCC1CCN(CC(=O)Nc2cc(C#N)cc(NC3CCC(=O)NC3=O)c2)CC1` (stereo not shown) [Cmpd 39, N-(3-cyano-5-(2,6-dioxopiperidin-3-ylamino)phenyl)-2-(4-(2-(4-(3-(6-cyano-5-(trifluoromethyl)pyridin-3-yl)-5,5-dimethyl-4-oxo-2-thioxoimidazolidin-1-yl)-2-ethylphenoxy)ethyl)piperidin-1-yl)acetamide] the same measures were “** (25%<Y<=35%)” and under 100 nM.
In the case of `CCc1cc(N2C(=S)N(c3cnc(C#N)c(C(F)(F)F)c3)C(=O)C2(C)C)ccc1OCC[C@@H]1C[C@H]2CC[C@@H](C1)N2CC(=O)Nc1cc(Cl)cc(NC2CCC(=O)NC2=O)c1` (stereo partly drawn) [Cmpd 62, N-(3-chloro-5-(2,6-dioxopiperidin-3-ylamino)phenyl)-2-((1R,3s,5S)-3-(2-(4-(3-(6-cyano-5-(trifluoromethyl)pyridin-3-yl)-5,5-dimethyl-4-oxo-2-thioxoimidazolidin-1-yl)-2-ethylphenoxy)ethyl)-8-azabicyclo[3.2.1]octan-8-yl)acetamide], the “Y (lowest measured AR level normalized to DMSO control)” value is given as “* (0<Y<=25%)” and the DC50 was under 100 nM.
As for `CCc1cc(N2C(=S)N(c3cnc(C#N)c(C(F)(F)F)c3)C(=O)C23CCC3)ccc1OCCC1CCN([C@@H](C)C(=O)Nc2cc(NC3CCC(=O)NC3=O)ccc2F)CC1` (stereo partly drawn) [Cmpd 85, (2S)-2-(4-(2-(4-(7-(6-cyano-5-(trifluoromethyl)pyridin-3-yl)-8-oxo-6-thioxo-5,7-diazaspiro[3.4]octan-5-yl)-2-ethylphenoxy)ethyl)piperidin-1-yl)-N-(5-(2,6-dioxopiperidin-3-ylamino)-2-fluorophenyl)propanamide], the “Y (lowest measured AR level normalized to DMSO control)” value is given as “* (0<Y<=25%)”. For the same compound, the DC50 (read-out: DC50) was in the range of 100 to 500 nM.
With `C[C@H](C(=O)Nc1cccc(NC2CCC(=O)NC2=O)c1)N1CCC(CCOc2ccc(N3C(=S)N(c4cnc(C#N)c(C(F)(F)F)c4)C(=O)C3(C)C)cc2CCF)CC1` (stereo partly drawn) [Cmpd 72, (2R)-2-(4-(2-(4-(3-(6-cyano-5-(trifluoromethyl)pyridin-3-yl)-5,5-dimethyl-4-oxo-2-thioxoimidazolidin-1-yl)-2-(2-fluoroethyl)phenoxy)ethyl)piperidin-1-yl)-N-(3-(2,6-dioxopiperidin-3-ylamino)phenyl)propanamide], the “Y (lowest measured AR level normalized to DMSO control)” value is “* (0<Y<=25%)”. Besides, the DC50 (read-out: DC50) is under 100 nM.
Consider `CCc1cc(N2C(=S)N(c3ccc(C#N)c(C(F)(F)F)c3)C(=O)C2(C)C)ccc1OC1CCN(CC(=O)Nc2cc(Cl)cc(NC3CCC(=O)NC3=O)c2)CC1` (stereo not shown) [Cmpd 49, N-(3-chloro-5-(2,6-dioxopiperidin-3-ylamino)phenyl)-2-(4-(4-(3-(4-cyano-3-(trifluoromethyl)phenyl)-5,5-dimethyl-4-oxo-2-thioxoimidazolidin-1-yl)-2-ethylphenoxy)piperidin-1-yl)acetamide], for which the “Y (lowest measured AR level normalized to DMSO control)” value is listed as “** (25%<Y<=35%)”. The DC50 (read-out: DC50) was in the range of 100 to 500 nM.
Regarding `CCc1cc(N2C(=S)N(c3ccc(C#N)c(C(F)(F)F)c3)C(=O)C23CCC3)ccc1OCCC1CCN([C@@H](C)C(=O)Nc2cccc(NC3CCC(=O)NC3=O)c2)CC1` (stereo partly drawn) [Cmpd 59, (2S)-2-(4-(2-(4-(7-(4-cyano-3-(trifluoromethyl)phenyl)-8-oxo-6-thioxo-5,7-diazaspiro[3.4]octan-5-yl)-2-ethylphenoxy)ethyl)piperidin-1-yl)-N-(3-(2,6-dioxopiperidin-3-ylamino)phenyl)propanamide], the “Y (lowest measured AR level normalized to DMSO control)” value is on record as “** (25%<Y<=35%)”. Besides, the DC50 (read-out: DC50) was 100 to 500 nM.
As to `CCc1cc(N2C(=S)N(c3cnc(C#N)c(C(F)(F)F)c3)C(=O)C23CCC3)ccc1OCCC1CCN([C@H](C)C(=O)Nc2cc(Cl)cc(NC3CCC(=O)NC3=O)c2)CC1` (stereo partly drawn) [Cmpd 36, (2R)-N-(3-chloro-5-(2,6-dioxopiperidin-3-ylamino)phenyl)-2-(4-(2-(4-(7-(6-cyano-5-(trifluoromethyl)pyridin-3-yl)-8-oxo-6-thioxo-5,7-diazaspiro[3.4]octan-5-yl)-2-ethylphenoxy)ethyl)piperidin-1-yl)propanamide], the “Y (lowest measured AR level normalized to DMSO control)” value is listed as “* (0<Y<=25%)”. Also, for the setting “read-out: DC50”, the DC50 was 100 to 500 nM.
On to `CCc1cc(N2C(=S)N(c3ccc(C#N)c(C(F)(F)F)c3)C(=O)C2(C)C)ccc1OCC[C@@H]1CCN(CC(=O)Nc2cccc(NC3CCC(=O)NC3=O)c2)[C@H](C)C1` (stereo partly drawn) [Cmpd 71, 2-((2R,4R)-4-(2-(4-(3-(4-cyano-3-(trifluoromethyl)phenyl)-5,5-dimethyl-4-oxo-2-thioxoimidazolidin-1-yl)-2-ethylphenoxy)ethyl)-2-methylpiperidin-1-yl)-N-(3-(2,6-dioxopiperidin-3-ylamino)phenyl)acetamide], for which the “Y (lowest measured AR level normalized to DMSO control)” value was “* (0<Y<=25%)”. The DC50 (read-out: DC50) is under 100 nM.
Regarding `CCc1cc(N2C(=S)N(c3ccc(C#N)c(C(F)(F)F)c3)C(=O)C2(C)C)ccc1OCCC1(F)CCN(CC(=O)Nc2cc(Cl)cc(NC3CCC(=O)NC3=O)c2)CC1` (stereo not shown) [Cmpd 90, N-(3-chloro-5-(2,6-dioxopiperidin-3-ylamino)phenyl)-2-(4-(2-(4-(3-(4-cyano-3-(trifluoromethyl)phenyl)-5,5-dimethyl-4-oxo-2-thioxoimidazolidin-1-yl)-2-ethylphenoxy)ethyl)-4-fluoropiperidin-1-yl)acetamide], the “Y (lowest measured AR level normalized to DMSO control)” value is listed as “* (0<Y<=25%)”. For the setting “read-out: DC50”, the DC50 was under 100 nM.
With `CC1(C)C(=O)N(c2ccc(C#N)c(C(F)(F)F)c2)C(=S)N1c1ccc(OCCC2CCN(CC(=O)Nc3cccc(NC4CCC(=O)NC4=O)c3)CC2)c(CCF)c1` (stereo not shown) [Cmpd 48, 2-(4-(2-(4-(3-(4-cyano-3-(trifluoromethyl)phenyl)-5,5-dimethyl-4-oxo-2-thioxoimidazolidin-1-yl)-2-(2-fluoroethyl)phenoxy)ethyl)piperidin-1-yl)-N-(3-(2,6-dioxopiperidin-3-ylamino)phenyl)acetamide], the “Y (lowest measured AR level normalized to DMSO control)” value is on record as “* (0<Y<=25%)”. Besides, where the note is “read-out: DC50”, the DC50 was under 100 nM.
In the case of `CCc1cc(N2C(=S)N(c3ccc(C#N)c(C(F)(F)F)c3)C(=O)C2(C)C)ccc1OCC[C@H]1CCN(CC(=O)Nc2cccc(NC3CCC(=O)NC3=O)c2)[C@H](C)C1` (stereo partly drawn) [Cmpd 70, 2-((2R,4S)-4-(2-(4-(3-(4-cyano-3-(trifluoromethyl)phenyl)-5,5-dimethyl-4-oxo-2-thioxoimidazolidin-1-yl)-2-ethylphenoxy)ethyl)-2-methylpiperidin-1-yl)-N-(3-(2,6-dioxopiperidin-3-ylamino)phenyl)acetamide], the “Y (lowest measured AR level normalized to DMSO control)” value was “* (0<Y<=25%)”. For the same compound, the DC50 (read-out: DC50) was under 100 nM.
